Test results as given in US20210361577A1, “LIPOPHILIC TRANSPORT PARTICLES FOR COSMETIC OR PHARMACEUTICAL ACTIVE INGREDIENTS” (IOI OLEO GMBH, priority 2018, published 2021).
Like-named read-outs stand apart in the source and are kept apart here.

Tests used:
[1] = cited from earlier work
[2] = contact angle with purified water (hydrophobicity) and its storage stability; assay type: physicochemical; settings: after 16 weeks at room temperature (20° C.) and at 40° C.
Method: An advantageous property of the PGFEs for lipophilic carrier particles in accordance with claim 1 which should be considered is the hydrophobicity, which can be determined by determining the contact angle. The determination of the hydrophobicity is carried out by determining the contact angle between the PGFE in the solid physical state and a droplet of purified water. According to Young's equation, cos θ=(γSV−γSL)/γLV, wherein γSL is the interfacial tension between the PGFE and water, γLV is the interfacial tension of the water droplet and γSV is the surface tension between the PGFE and the surrounding air. θ is the contact angle. Thus, the larger the contact angle θ, the higher is the surface tension between the PGFE and the water and the higher is the hydrophobicity of the PGFE under investigation. The contact angles for the proposed polyglycerol fatty acid esters also correlate with the HLB value which is often used in pharmaceutical technology, which is on a scale of 0 to 20 and provides information regarding the ratio of lipophilic to hydrophilic molecular fractions, wherein the hydrophilic fraction increases with increasing HLB value. […]

[3] = active ingredient loading of carrier particles made by spray drying; assay type: physicochemical; settings: spray drying process
Description: The carrier particles which are provided fulfil their purpose when they are loaded with an active ingredient, in particular a pharmaceutical active ingredient. This may, for example, be carried out by means of a spray drying process in accordance with claim 22, in which the active ingredient and the PGFE or PGFEs are initially dissolved and/or suspended in a suitable organic solvent and then are separated from the solvent once more by spray drying. Examples of suitable solvents are the ether tetrahydrofuran, the alcohol ethanol, the ketone acetone, the ester ethyl acetate or the alkane heptane. It has been shown that by means of spray drying, loading with a pharmaceutical active ingredient of up to 30% by weight is possible.
Lipophilic carrier particles in accordance with claim 1 can advantageously be loaded with pharmaceutical active ingredients from the group formed by non-steroidal antirheumatic agents.

SMILES | increase in the crystal thickness ([1]; a- to b-modification transformation) | average lamellar structures per subcellular unit ([1]; a-modification) | average lamellar structures per subcellular unit ([1]; after complete transformation into the b-modification) | contact angle deviation from starting value on storage [2] [°] | loading of the carrier particles with active ingredient [3]
CCCCCCCCCCCCCCCCCC(=O)OCC(COC(=O)CCCCCCCCCCCCCCCCC)OC(=O)CCCCCCCCCCCCCCCCC [glycerol tristearate] | approximately 67% | 6 | 10.5 | 40 | 
CC(C)Cc1ccc(C(C)C(=O)O)cc1 (centres unmarked) [ibuprofen] |  |  |  |  | up to 30 % by weight
